Data reported in patent US10131652B2, “Pyrimidinyloxy benzene derivatives as herbicides” (E. I. DU PONT DE NEMOURS AND COMPANY, priority 2014, dated 2018).

Tests used:
Type in all cases: in vivo
[1] = tested on: Italian ryegrass (Lolium multiflorum); assay: Test B pre-/postemergence plant response
Outline: (§1)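 Visual injury rating, 0 (no effect) to 100 (complete control), vs untreated controls after ~10 d greenhouse. Pre: directed soil spray after planting in loam/sand. Post: plants 2–10 cm, 1–2 leaf stage. Compound in non-phytotoxic solvent plus surfactant.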

[2] = tested on: kochia (Kochia scoparia); assay: Test B pre-/postemergence plant response
Outline: as §1

[3] = tested on: ragweed (common ragweed, Ambrosia elatior); assay: Test B pre-/postemergence plant response
Outline: as §1

[4] = tested on: barnyardgrass (Echinochloa crus-galli); assay: Test C flooded paddy test plant response; settings: Flood, 250 g ai/ha; scale of 0 to 100 where 0 is no effect and 100 is complete control; 13 to 15 days
Outline: (§2)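 Readout is a visual 0–100 score (100 = complete control) versus controls at 13–15 days. Plants at 2-leaf stage, flooded to 3 cm, treated through paddy water.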

[5] = tested on: ducksalad (Heteranthera limosa); assay: Test C flooded paddy test plant response; settings: Flood, 250 g ai/ha; scale of 0 to 100 where 0 is no effect and 100 is complete control; 13 to 15 days
Outline: as §2

[6] = tested on: rice (Oryza sativa); assay: Test C flooded paddy test plant response; settings: Flood, 250 g ai/ha; scale of 0 to 100 where 0 is no effect and 100 is complete control; 13 to 15 days
Outline: as §2

[7] = tested on: small-flower umbrella sedge (Cyperus difformis); assay: Test C flooded paddy test plant response; settings: Flood, 250 g ai/ha; scale of 0 to 100 where 0 is no effect and 100 is complete control; 13 to 15 days
Outline: as §2

[8] = tested on: barnyardgrass (Echinochloa crus-galli); assay: Test D pre-/postemergence plant response; settings: Postemergence; for Barnyardgrass plant response rating: scale 0 to 100 (0 no effect, 100 complete control); for Plant response rating, Barnyardgrass: scale 0 to 100, 0 no effect, 100 complete control
Outline: (§3)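 Greenhouse herbicidal response, both pre- and postemergence applications, with solvent/surfactant formulation. Postemergence plants were at 1- to 4-leaf stage. Visual scores 0–100 relative to controls, taken 13 to 15 days later.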

[9] = tested on: blackgrass (Alopecurus myosuroides); assay: Test D pre-/postemergence plant response; settings: Postemergence; for Blackgrass plant response rating: scale 0 to 100 (0 no effect, 100 complete control); for Plant response rating, Blackgrass: scale 0 to 100, 0 no effect, 100 complete control
Outline: as §3

[10] = tested on: giant foxtail (Setaria faberii); assay: Test D pre-/postemergence plant response; settings: Postemergence; for Foxtail, Giant plant response rating: scale 0 to 100 (0 no effect, 100 complete control); for Plant response rating, Foxtail, Giant: scale 0 to 100, 0 no effect, 100 complete control
Outline: as §3

[11] = tested on: johnsongrass (Sorghum halepense); assay: Test D pre-/postemergence plant response; settings: Postemergence; for Johnsongrass plant response rating: scale 0 to 100 (0 no effect, 100 complete control); for Plant response rating, Johnsongrass: scale 0 to 100, 0 no effect, 100 complete control
Outline: as §3

[12] = tested on: oilseed rape (Brassica napus); assay: Test D pre-/postemergence plant response; settings: Postemergence; for Oilseed Rape plant response rating: scale 0 to 100 (0 no effect, 100 complete control); for Plant response rating, Oilseed Rape: scale 0 to 100, 0 no effect, 100 complete control
Outline: as §3

[13] = tested on: pigweed (Amaranthus retroflexus); assay: Test D pre-/postemergence plant response; settings: Postemergence; for Pigweed plant response rating: scale 0 to 100 (0 no effect, 100 complete control); for Plant response rating, Pigweed: scale 0 to 100, 0 no effect, 100 complete control
Outline: as §3

[14] = tested on: velvetleaf (Abutilon theophrasti); assay: Test D pre-/postemergence plant response; settings: Postemergence; for Velvetleaf plant response rating: scale 0 to 100 (0 no effect, 100 complete control); for Plant response rating, Velvetleaf: scale 0 to 100, 0 no effect, 100 complete control
Outline: as §3

[15] = 125 g ai/ha, postemergence, 0 to 100 scale, 0 no effect, 100 complete control
[16] = Postemergence, 500 g ai/ha, 0 to 100 scale (0 no effect, 100 complete control)
[17] = Preemergence, 125 g ai/ha, 0 to 100 scale where 0 is no effect and 100 is complete control
[18] = Preemergence, 500 g ai/ha, 0 to 100 scale where 0 is no effect and 100 is complete control

SMILES: Cn1nnc(-c2ccccc2Oc2ncc(Br)cn2)n1 [Compound 50]
- Plant response rating, Ryegrass, Italian [1, 15]: 0
- Plant response rating, Ryegrass, Italian [1, 16]: 50
- Plant response rating, Ryegrass, Italian [1, 17]: 20
- Plant response rating, Ryegrass, Italian [1, 18]: 50
- Plant response rating, Kochia [2, 15]: 60
- Plant response rating, Kochia [2, 16]: 80
- Plant response rating, Kochia [2, 17]: 10
- Plant response rating, Kochia [2, 18]: 60
- Plant response rating, Ragweed [3, 15]: 20
- Plant response rating, Ragweed [3, 16]: 60
- Plant response rating, Ragweed [3, 17]: 0
- Plant response rating, Ragweed [3, 18]: 50
- Barnyardgrass plant response rating [4]: 0
- Ducksalad plant response rating [5]: 30
- Rice plant response rating [6]: 0
- Sedge, Umbrella plant response rating [7]: 0
- Barnyardgrass plant response rating ([8]; 16 g ai/ha): 0
- Barnyardgrass plant response rating ([8]; 31 g ai/ha): 0
- Plant response rating, Barnyardgrass ([8]; 62 g ai/ha): 0
- Plant response rating, Barnyardgrass ([8]; 125 g ai/ha): 0
- Blackgrass plant response rating ([9]; 16 g ai/ha): 0
- Blackgrass plant response rating ([9]; 31 g ai/ha): 0
- Plant response rating, Blackgrass ([9]; 62 g ai/ha): 0
- Plant response rating, Blackgrass ([9]; 125 g ai/ha): 0
- Foxtail, Giant plant response rating ([10]; 16 g ai/ha): 0
- Foxtail, Giant plant response rating ([10]; 31 g ai/ha): 0
- Plant response rating, Foxtail, Giant ([10]; 62 g ai/ha): 5
- Plant response rating, Foxtail, Giant ([10]; 125 g ai/ha): 35
- Johnsongrass plant response rating ([11]; 16 g ai/ha): 0
- Johnsongrass plant response rating ([11]; 31 g ai/ha): 0
- Plant response rating, Johnsongrass ([11]; 62 g ai/ha): 0
- Plant response rating, Johnsongrass ([11]; 125 g ai/ha): 0
- Oilseed Rape plant response rating ([12]; 16 g ai/ha): 5
- Oilseed Rape plant response rating ([12]; 31 g ai/ha): 5
- Plant response rating, Oilseed Rape ([12]; 62 g ai/ha): 10
- Plant response rating, Oilseed Rape ([12]; 125 g ai/ha): 30
- Pigweed plant response rating ([13]; 16 g ai/ha): 0
- Pigweed plant response rating ([13]; 31 g ai/ha): 5
- Plant response rating, Pigweed ([13]; 62 g ai/ha): 5
- Plant response rating, Pigweed ([13]; 125 g ai/ha): 30
- Velvetleaf plant response rating ([14]; 16 g ai/ha): 0
- Velvetleaf plant response rating ([14]; 31 g ai/ha): 0
- Plant response rating, Velvetleaf ([14]; 62 g ai/ha): 0
- Plant response rating, Velvetleaf ([14]; 125 g ai/ha): 40
